Test results as given in ChEMBL document CHEMBL4020813, “The ProTide Prodrug Technology: From the Concept to the Clinic” (J Med Chem, 2018).

How the values were obtained:
[1] = Half life in po dosed human; assay type: ADME, organism-based; conditions: in vivo
[2] = Tmax in po dosed human; assay type: ADME, organism-based; conditions: in vivo
[3] = tested on: Human immunodeficiency virus 1; experiment: Antiviral activity against HIV1 infected in human JM1 cells; assay type: functional, cell-based; conditions: Human immunodeficiency virus 1, JM1
[4] = tested on: JM1; experiment: Cytotoxicity against human JM1 cells; assay type: cell-based
[5] = tested on: Ebolavirus; experiment: Antiviral activity against Ebolavirus H. sapiens-tc/COD/1995/Kikwit infected in rhesus monkey assessed as host survival at 3 mg/kg, iv administered as bolus dose; assay type: functional; conditions: Orthoebolavirus, in Macaca mulatta
[6] = tested on: Ebolavirus; experiment: Antiviral activity against Ebolavirus infected in human HuH7 cells after 3 days by end point dilution assay; assay type: functional, cell-based; conditions: Orthoebolavirus, Huh-7, 72 h
[7] = Cytotoxicity against human HuH7 after 4 to 5 days by Cell-Titer Glo viability assay; assay type: cell-based, Huh-7; conditions: HuH7 cells
[8] = Half life in rhesus monkey plasma at 10 mg/kg, iv administered as bolus dose by LC-MS/MS analysis; assay type: ADME, organism-based, Macaca mulatta
[9] = Cytotoxicity against human HeLa after 4 to 5 days by Cell-Titer Glo viability assay; assay type: cell-based; conditions: HeLa cells
[10] = Cytotoxicity against human primary macrophages after 4 to 5 days by Cell-Titer Glo viability assay; assay type: cell-based, Macrophage
[11] = tested on: Ebolavirus; experiment: Antiviral activity against Ebolavirus infected in human primary macrophages after 48 hrs by immuno-staining assay; assay type: functional; conditions: Orthoebolavirus
[12] = tested on: Ebolavirus; experiment: Antiviral activity against Ebolavirus infected in human HeLa cells after 48 hrs by immuno-staining assay; assay type: functional, cell-based; conditions: Orthoebolavirus
[13] = Half life in human primary macrophages assessed as nucleoside triphosphate level at 10 uM; assay type: ADME, cell-based; conditions: macrophage
[14] = tested on: Ebolavirus; experiment: Antiviral activity against Ebolavirus H. sapiens-tc/COD/1995/Kikwit infected in rhesus monkey assessed as host survival at 10 mg/kg, iv administered as bolus dose; assay type: functional; conditions: Orthoebolavirus, in Macaca mulatta
[15] = tested on: HT-29; experiment: Antitumor activity against human HT-29 cells xenografted in nude mouse assessed as tumor growth inhibition relative to control; assay type: functional
[16] = Half life in human; assay type: ADME
[17] = species on record: Homo sapiens; experiment: Reduction in tumor growth in patient with solid malignancies; assay type: functional
[18] = species on record: Homo sapiens; experiment: Cmax in human assessed as dFdCTP level; assay type: ADME
[19] = Protein binding in human plasma; assay type: ADME, cell-free; conditions: read-out: PPB (converted)
[20] = Renal clearance in human at 100 to 800 mg; assay type: ADME
[21] = Fraction absorbed in po dosed portal vein cannulated dog; assay type: ADME, organism-based, Canis lupus familiaris; conditions: in vivo, read-out: Fabs
[22] = Drug recovery in human urine at 100 to 800 mg; assay type: ADME; conditions: read-out: Drug recovery
[23] = tested on: Plasma; experiment: Protein binding in plasma of patient with end stage renal disease; assay type: ADME, cell-free; conditions: human
[24] = Fraction absorbed in human; assay type: ADME; conditions: read-out: Fabs
[25] = Oral bioavailability in portal vein cannulated dog; assay type: ADME, organism-based, Canis lupus familiaris; conditions: in vivo
[26] = Plasma concentration in dog at 5 mg/kg at 1 hr post dose
[27] = Half life in beagle dog intestine
[28] = in vivo; conditions: dog, po, 2 mg/kg
[29] = Plasma concentration in dog at 5 mg/kg at 0.14 hrs post dose
[30] = Half life in beagle dog hepatic S9 fraction
[31] = in vivo; conditions: dog, po, 20 mg/kg
[32] = Half life in human MT2 cells by HPLC analysis

C[C@]1(F)[C@H](O)[C@@H](CO)O[C@H]1n1ccc(=O)[nH]c1=O
half-life [1]: 28.8 to 45 min | Tmax [2]: 120 to 240 min

COC(=O)[C@H](C)NP(=O)(OC[C@H]1O[C@@H](n2cc(C)c(=O)[nH]c2=O)C[C@@H]1N=[N+]=[N-])Oc1ccc(OC)cc1 (stereo partly specified)
EC50 [3]: 0.8 µM | IC50 [4]: 100 µM

CCC(CC)COC(=O)[C@H](C)N[P@](=O)(OC[C@H]1O[C@@](C#N)(c2ccc3c(N)ncnn23)[C@H](O)[C@@H]1O)Oc1ccccc1
survival at 3 mg/kg [5]: 50% | EC50 [6]: 0.07 µM | CC50 [7]: > 20 µM | half-life [8]: 23.4 min | CC50 [9]: > 20 µM | CC50 [10]: > 20 µM | EC50 [11]: 0.086 µM | EC50 [12]: 0.14 µM | t1/2 [13]: 960 min | survival at 10 mg/kg [14]: 100%

O=c1[nH]cc(F)c(=O)[nH]1 [FLUOROURACIL]
TGI [15]: 25%

C[C@H](NP(=O)(OC[C@H]1O[C@@H](n2ccc(N)nc2=O)C(F)(F)[C@@H]1O)Oc1ccccc1)C(=O)OCc1ccccc1 (stereo partly specified) [FOSGEMCITABINE PALABENAMIDE]
half-life [16]: 498 min | TGI [17]: >30% | Cmax [18]: 475 µM

C[C@H](NP(=O)(OC[C@H]1O[C@@H](n2cc(F)c(=O)[nH]c2=O)C[C@@H]1O)Oc1cccc2ccccc12)C(=O)OCc1ccccc1 (stereo partly specified) [FOSIFLOXURIDINE NAFALBENAMIDE]
TGI [15]: 47%

N#C[C@@]1(c2ccc3c(N)ncnn23)O[C@H](CO)[C@@H](O)[C@H]1O [GS-441524]
EC50 [6]: 1.5 µM | CC50 [7]: > 20 µM | CC50 [9]: > 20 µM | CC50 [10]: > 20 µM | EC50 [11]: > 20 µM | EC50 [12]: > 20 µM

CC(C)OC(=O)[C@H](C)N[P@](=O)(OC[C@H]1O[C@@H](n2ccc(=O)[nH]c2=O)[C@](C)(F)[C@@H]1O)Oc1ccccc1 [SOFOSBUVIR]
fraction unbound [19]: 0.18 | Tmax [2]: 30 to 120 min | CL renal [20]: 238 mL/min | Fa [21]: 36% | dose excreted [22]: 3.5% | PPB [23]: 85% | Fa [24]: > 80% | bioavailability [25]: 9.9%

CC(C)OC(=O)[C@H](C)N[P@](=O)(CO[C@H](C)Cn1cnc2c(N)ncnc21)Oc1ccccc1 [TENOFOVIR ALAFENAMIDE]
half-life [16]: 92 min | concentration at 1 h [26]: 18 µM | half-life [27]: 31 min | bioavailability [28]: 1.7% | concentration at […] [29]: 1.58 µM | half-life [30]: 31 min | bioavailability [31]: 24.7% | half-life [32]: 28.3 min
